Assay results taken from EPA's ToxValDB 9.5.
In brackets after ≈: the same amount, converted by molar mass. Several values for one entry are separate records, joined by “and”; a condition that tells them apart may be missing. Equal values may be shown once.

How the values were obtained:
Rattus norvegicus [1] = settings: oral
Rattus norvegicus [2] = settings: for LD50 / LC50: acute
[3] = short-term, duration: 28 days, oral, gavage, M, Sprague-Dawley
[4] = subchronic, gavage, Sprague-Dawley
[5] = reproduction developmental, duration: 7 days, oral, gavage, F, CD Strain from Charles River
[6] = subchronic, duration: 13 weeks, oral, gavage, Sprague-Dawley
[7] = reproduction developmental, duration: 24 weeks, inhalation, generation: F0
[8] = reproduction developmental, duration: 24 weeks, inhalation, generation: F1
[9] = reproduction developmental, duration: 10 days, oral, gavage, F
[10] = short-term, duration: 12 days, inhalation, F, Fischer 344
[11] = short-term, duration: 12 days, inhalation, M, Fischer 344
[12] = short-term, duration: 14 days, oral, gavage, F, Crj:CD(SD)
[13] = short-term, duration: 14 days, oral, gavage, M, Crj:CD(SD)
[14] = subchronic, duration: 13 weeks, inhalation, F, Fischer 344
[15] = subchronic, duration: 13 weeks, inhalation, M, Fischer 344

Cl.Cl.NCCNCCNCCN [Trientine hydrochloride]
NOAEL (Rattus norvegicus [1]; chronic, duration: 92 days, drinking water, F, Fischer 344, Histopathology: Uterus: Increased prevalence of dilatation): 669 mg/kg-day

Cc1ccc(Nc2ccc(C)cc2)cc1 [4,4'-Dimethyldiphenylamine]
NOEL (Rattus norvegicus [1]; short-term, duration: 28 days, gavage, M/F, Clinical Observation: Salivation + Blood Chemistry: GOT increase, GPT increase, gamma-GTP increase, T-CHO increase, TG increase, IP …): 30 mg/kg-day

CCCCCCCCCCOC1CCS(=O)(=O)C1 (configuration not stated) [Thiophene, 3-(decyloxy)tetrahydro-, 1,1-dioxide]
NOAEL (Rattus norvegicus [2]; [3]): 100 mg/kg-day

CCCCCCCCCCCCCCCCCCCCCC[N+](C)(C)C.[Cl-] [Docosyltrimethylammonium chloride]
NOEL (Rattus norvegicus [1]; subchronic, gavage, M, Sprague-Dawley, Clinical Observation: Salivation Perinasal and perioral smudge Soft stool and diarrhea + Body Weight Changes: decrease, R + Food …): < 5 mg/kg-day

ClCc1ccc(-c2ccc(CCl)cc2)cc1 [4,4'-Bis(chloromethyl)-1,1'-biphenyl]
NOEL (Rattus norvegicus [1]; [4]): 1000 mg/kg-day

CCOP(OCC)OCC [Triethyl phosphite]
NOAEL (Rattus norvegicus [1]; subchronic, duration: 32 days, gavage, M/F, Deaths + Clinical Observation: Impaired general condition Emaciation Unkempt fur + Body Weight Changes: Weight gain decrease + Food …): 150 mg/kg-day

CC(C)(C)c1cc(CCC(=O)NNC(=O)CCc2cc(C(C)(C)C)c(O)c(C(C)(C)C)c2)cc(C(C)(C)C)c1O
LD50 (Rattus norvegicus [2]; oral): > 7000 mg/kg
NOAEL (Rattus norvegicus [2]; short-term, duration: 28 days, oral, diet): > 10000 ppm
NOAEL (Rattus norvegicus [2]; subchronic, duration: 3 months, oral, diet): 38.4 mg/kg-day

NCCCCCCN [1,6-Hexanediamine]
LC50 (Rattus norvegicus [2]; inhalation, Crl): > 0.95 µg/mL
LD50 (Rattus norvegicus [2]; oral, gavage, Crl:CD(SD)): 1130 mg/kg and 792 mg/kg
LOAEL (Rattus norvegicus [2]; developmental, duration: 7 days, oral, gavage, CD Strain from Charles River): 184 mg/kg-day
NOAEL (Rattus norvegicus [2]; reproduction developmental, duration: 40 weeks, oral, diet, Charles River COBS CD, Portage Michigan): 150 mg/kg-day
LOAEL (Rattus norvegicus [2]; [5]): 184 mg/kg-day
NOAEL (Rattus norvegicus [2]; [5]): 112 mg/kg-day
NOAEL (Rattus norvegicus [2]; subchronic, duration: 13 weeks, Inhalation, Crl:CD(SD)): 12.8 mg/m3

c1cc(OCC2CO2)cc(OCC2CO2)c1 (configuration not stated) [Diglycidyl resorcinol ether]
NOEL (Rattus norvegicus [1]; subchronic, duration: 13 weeks, gavage, M/F, Fischer 344, Deaths + Body Weight Changes: decrease + Histopathology: Stomach/forestomach-Inflammation Stomach/forestomach-Basal cell hyperplasia Stomach…): < 12.5 mg/kg-day

OP(O)c1ccccc1 [Phenylphosphinic acid]
LD50 (Rattus norvegicus [2]; oral, gavage): 1470 mg/kg and 1710 mg/kg
NOAEL (Rattus norvegicus [2]; subchronic, duration: 31 days, oral, diet): 960 mg/kg-day

Cc1[nH]n(-c2ccccc2)c(=O)c1N=Nc1ccc(-c2ccc(N=Nc3c(C)[nH]n(-c4ccccc4)c3=O)c(Cl)c2)cc1Cl [C.I. Pigment Orange 13]
NOEL (Rattus norvegicus [1]; [4]): 1000 mg/kg-day

CCCCN(CCCC)c1ccc(C(=O)c2ccccc2C(=O)O)c(O)c1 [2-[4-(Dibutylamino)-2-hydroxybenzoyl]benzoic acid]
LD50 (Rattus norvegicus [2]; dermal, Sprague-Dawley): > 2000 mg/kg
LD50 (Rattus norvegicus [2]; oral, gavage, Sprague-Dawley): > 5000 mg/kg
LOAEL (Rattus norvegicus [2]; reproduction developmental, duration: 21 weeks, oral, gavage, M, Sprague-Dawley): 250 mg/kg-day
LOAEL (Rattus norvegicus [2]; reproduction developmental, duration: 21 weeks, oral, gavage, Sprague-Dawley, generation: F1): 250 mg/kg-day
LOAEL (Rattus norvegicus [2]; [3]): 1000 mg/kg-day
LOAEL (Rattus norvegicus [2]; [6]): 250 mg/kg-day
NOAEL (Rattus norvegicus [2]; [6]): 50 mg/kg-day

O.O.[Ba+2].[Cl-].[Cl-] [Barium chloride dihydrate]
NOEL (Rattus norvegicus [1]; subchronic, duration: 13 weeks, water, F, Fischer 344, Deaths + Body Weight Changes: decrease + Water Consumption: decrease + Blood Chemistry: Pi increase + Absolute Organ Weight: Kidney increase…): 10 mg/kg-day
NOEL (Rattus norvegicus [1]; subchronic, duration: 13 weeks, water, M/F, Fischer 344, Deaths + Body Weight Changes: decrease + Water Consumption: decrease + Blood Chemistry: Pi increase + Absolute Organ Weight: Kidney increase…): 19 mg/kg-day

O=C(c1ccc(Cl)cc1)c1ccccc1Cl [2,4'-Dichlorobenzophenone]
NOEL (Rattus norvegicus [1]; subchronic, gavage, M, Sprague-Dawley, Clinical Observation: Salivation (transient) + Functional Observational Battery: Salivation + Body Weight Changes: Gain decrease(trend) + …): 40 mg/kg-day

CCCCCCCCCCc1cc(Oc2ccc(S(=O)(=O)O)cc2)ccc1S(=O)(=O)O [Decyl(sulfophenoxy)benzenesulfonic acid]
LD50 (Rattus norvegicus [2]; oral, gavage, Fischer 344): ≥ 1000 mg/kg and ≤ 2000 mg/kg
LD50 (Rattus norvegicus [2]; oral, gavage, Sprague-Dawley): 3010 mg/kg

O=C1CCc2ccccc2O1 [3,4-Dihydrocoumarin]
NOEL (Rattus norvegicus [1]; subchronic, duration: 13 weeks, gavage, M/F, Fischer 344, Deaths + Body Weight Changes: decrease + Hematology: Plt decrease, Hct decrease, Hgb decrease, RBC decrease, WBC decrease, Lympho decrease…): < 75 mg/kg-day

CCc1ccccc1N [2-Ethylaniline]
NOEL (Rattus norvegicus [1]; subchronic, duration: 42 days, gavage, M, CD(SD), Hematology: RBC decrease, HGB decrease, MCV increase, MCH increase, MCHC decrease, RET increase + Blood Chemistry: Alb increase A/G …): 3 mg/kg-day

CC(C)(N)C#N [2-Amino-2-methylpropionitrile]
LD50 (Rattus norvegicus [2]; oral, Sprague-Dawley): ≥ 10 mg/kg and ≤ 30 mg/kg
NOAEL (Rattus norvegicus [2]; short-term, duration: 2 weeks, inhalation, M, Sprague-Dawley): 75.7 mg/m3

C1COCO1 [1,3-Dioxolane]
LC50 (Rattus norvegicus [2]; inhalation, Crl:CD1): 68.4 µg/mL (≈ 923 µM)
LD50 (Rattus norvegicus [2]; oral, gavage, Sprague-Dawley): 5200 mg/kg
LOAEL (Rattus norvegicus [2]; developmental, duration: 10 days, oral, gavage): 1000 mg/kg-day
LOAEL (Rattus norvegicus [2]; [7]): > 379 mg/m3
NOAEL (Rattus norvegicus [2]; [7]): 379 mg/m3
LOAEL (Rattus norvegicus [2]; [8]): > 379 mg/m3
NOAEL (Rattus norvegicus [2]; [8]): 379 mg/m3
LOAEL (Rattus norvegicus [2]; [9]): 500 mg/kg-day
NOAEL (Rattus norvegicus [2]; [9]): 250 mg/kg-day
LOAEL (Rattus norvegicus [2]; [10]): 7030 mg/m3
NOAEL (Rattus norvegicus [2]; [10]): 1560 mg/m3
LOAEL (Rattus norvegicus [2]; [11]): 7030 mg/m3
NOAEL (Rattus norvegicus [2]; [11]): 1560 mg/m3
LOAEL (Rattus norvegicus [2]; [12]): 250 mg/kg-day
NOAEL (Rattus norvegicus [2]; [12]): 75 mg/kg-day
LOAEL (Rattus norvegicus [2]; [13]): 250 mg/kg-day
NOAEL (Rattus norvegicus [2]; [13]): 75 mg/kg-day
LOAEL (Rattus norvegicus [2]; [14]): 3030 mg/m3
NOAEL (Rattus norvegicus [2]; [14]): 903 mg/m3
LOAEL (Rattus norvegicus [2]; [15]): 9120 mg/m3
NOAEL (Rattus norvegicus [2]; [15]): 3030 mg/m3
